In US11230549B2, “Quinolino-pyrrolidin-2-one derivative and application thereof” (MEDSHINE DISCOVERY INC., priority 2018, dated 2022):

What was measured:
[1] = system: human lung cancer H446 cell subcutaneous xenograft tumor; assay: In vivo efficacy of ATM inhibitors and etoposide in H446 subcutaneous xenograft model; parameters: species or system female BALB/c nude mouse; settings: etoposide 15 mg/kg IP, ATM inhibitor 5 mg/kg PO; for Tumor volume (mm^3) / Tumor volume (mm^3) (Day 26): Mean ± SEM; for T/C (%) tumor proliferation rate / TGI (%) tumor growth inhibition rate: Day 26; for Tumor volume (mm^3) (Day 26): Day 26 after administration
Protocol: Evaluation of the in vivo efficacy of the test drug ATM inhibitor and etoposide in a BALB/c nude mouse model with human lung cancer H446 cell subcutaneous xenograft tumor via intraperitoneal or oral administration.
5% CO2 culture. Conventional digestion treatment with pancreatin-EDTA for passage was carried out twice a week. When the cell saturation was 80% to 90%, the cells were collected, counted and inoculated.
0.2 mL 5×10^6 of H446 cells (1:1 plus matrigel) were subcutaneously inoculated on the right back of each nude mouse. The grouping and administration were started when the average tumor volume reached 125 mm^3 (Table).
The experimental index was to investigate whether the tumor growth was inhibited, delayed or cured. Tumor diameter was measured twice a week with a vernier caliper. The calculation formula of tumor volume: V=0.5a×b^2, wherein a and b represented the long and short diameters of the tumor, respectively.
Tumor proliferation rate T/C (%): wherein T is the average tumor volume obtained from the last measurement (PG-D26) of the treatment group, and C is the average tumor volume obtained from the last measurement (PG-D26) of the control group.
Mean value and standard error (SEM) of the tumor volume of each group at each time point were included (specific data is shown in tables). […] The comparison between two groups was analyzed by T-test, and the comparison between three or more groups was analyzed by one-way ANOVA. If there was heterogeneity of variance, the Games-Howell test was applied. If there was homogeneity of variance, the Dunnet (2-sided) test was used for analysis.

Human-derived ATM kinase = target: T1, Human-derived ATM kinase (Homo sapiens, UniProt Q13315); assay: ATM enzyme activity test (HTRF, phosphorylation of GST-cMyc-p53); type: biochemical
T1 construct: Eurofins (contract laboratory that ran the test)
T1 sequence (Q13315 whole entry): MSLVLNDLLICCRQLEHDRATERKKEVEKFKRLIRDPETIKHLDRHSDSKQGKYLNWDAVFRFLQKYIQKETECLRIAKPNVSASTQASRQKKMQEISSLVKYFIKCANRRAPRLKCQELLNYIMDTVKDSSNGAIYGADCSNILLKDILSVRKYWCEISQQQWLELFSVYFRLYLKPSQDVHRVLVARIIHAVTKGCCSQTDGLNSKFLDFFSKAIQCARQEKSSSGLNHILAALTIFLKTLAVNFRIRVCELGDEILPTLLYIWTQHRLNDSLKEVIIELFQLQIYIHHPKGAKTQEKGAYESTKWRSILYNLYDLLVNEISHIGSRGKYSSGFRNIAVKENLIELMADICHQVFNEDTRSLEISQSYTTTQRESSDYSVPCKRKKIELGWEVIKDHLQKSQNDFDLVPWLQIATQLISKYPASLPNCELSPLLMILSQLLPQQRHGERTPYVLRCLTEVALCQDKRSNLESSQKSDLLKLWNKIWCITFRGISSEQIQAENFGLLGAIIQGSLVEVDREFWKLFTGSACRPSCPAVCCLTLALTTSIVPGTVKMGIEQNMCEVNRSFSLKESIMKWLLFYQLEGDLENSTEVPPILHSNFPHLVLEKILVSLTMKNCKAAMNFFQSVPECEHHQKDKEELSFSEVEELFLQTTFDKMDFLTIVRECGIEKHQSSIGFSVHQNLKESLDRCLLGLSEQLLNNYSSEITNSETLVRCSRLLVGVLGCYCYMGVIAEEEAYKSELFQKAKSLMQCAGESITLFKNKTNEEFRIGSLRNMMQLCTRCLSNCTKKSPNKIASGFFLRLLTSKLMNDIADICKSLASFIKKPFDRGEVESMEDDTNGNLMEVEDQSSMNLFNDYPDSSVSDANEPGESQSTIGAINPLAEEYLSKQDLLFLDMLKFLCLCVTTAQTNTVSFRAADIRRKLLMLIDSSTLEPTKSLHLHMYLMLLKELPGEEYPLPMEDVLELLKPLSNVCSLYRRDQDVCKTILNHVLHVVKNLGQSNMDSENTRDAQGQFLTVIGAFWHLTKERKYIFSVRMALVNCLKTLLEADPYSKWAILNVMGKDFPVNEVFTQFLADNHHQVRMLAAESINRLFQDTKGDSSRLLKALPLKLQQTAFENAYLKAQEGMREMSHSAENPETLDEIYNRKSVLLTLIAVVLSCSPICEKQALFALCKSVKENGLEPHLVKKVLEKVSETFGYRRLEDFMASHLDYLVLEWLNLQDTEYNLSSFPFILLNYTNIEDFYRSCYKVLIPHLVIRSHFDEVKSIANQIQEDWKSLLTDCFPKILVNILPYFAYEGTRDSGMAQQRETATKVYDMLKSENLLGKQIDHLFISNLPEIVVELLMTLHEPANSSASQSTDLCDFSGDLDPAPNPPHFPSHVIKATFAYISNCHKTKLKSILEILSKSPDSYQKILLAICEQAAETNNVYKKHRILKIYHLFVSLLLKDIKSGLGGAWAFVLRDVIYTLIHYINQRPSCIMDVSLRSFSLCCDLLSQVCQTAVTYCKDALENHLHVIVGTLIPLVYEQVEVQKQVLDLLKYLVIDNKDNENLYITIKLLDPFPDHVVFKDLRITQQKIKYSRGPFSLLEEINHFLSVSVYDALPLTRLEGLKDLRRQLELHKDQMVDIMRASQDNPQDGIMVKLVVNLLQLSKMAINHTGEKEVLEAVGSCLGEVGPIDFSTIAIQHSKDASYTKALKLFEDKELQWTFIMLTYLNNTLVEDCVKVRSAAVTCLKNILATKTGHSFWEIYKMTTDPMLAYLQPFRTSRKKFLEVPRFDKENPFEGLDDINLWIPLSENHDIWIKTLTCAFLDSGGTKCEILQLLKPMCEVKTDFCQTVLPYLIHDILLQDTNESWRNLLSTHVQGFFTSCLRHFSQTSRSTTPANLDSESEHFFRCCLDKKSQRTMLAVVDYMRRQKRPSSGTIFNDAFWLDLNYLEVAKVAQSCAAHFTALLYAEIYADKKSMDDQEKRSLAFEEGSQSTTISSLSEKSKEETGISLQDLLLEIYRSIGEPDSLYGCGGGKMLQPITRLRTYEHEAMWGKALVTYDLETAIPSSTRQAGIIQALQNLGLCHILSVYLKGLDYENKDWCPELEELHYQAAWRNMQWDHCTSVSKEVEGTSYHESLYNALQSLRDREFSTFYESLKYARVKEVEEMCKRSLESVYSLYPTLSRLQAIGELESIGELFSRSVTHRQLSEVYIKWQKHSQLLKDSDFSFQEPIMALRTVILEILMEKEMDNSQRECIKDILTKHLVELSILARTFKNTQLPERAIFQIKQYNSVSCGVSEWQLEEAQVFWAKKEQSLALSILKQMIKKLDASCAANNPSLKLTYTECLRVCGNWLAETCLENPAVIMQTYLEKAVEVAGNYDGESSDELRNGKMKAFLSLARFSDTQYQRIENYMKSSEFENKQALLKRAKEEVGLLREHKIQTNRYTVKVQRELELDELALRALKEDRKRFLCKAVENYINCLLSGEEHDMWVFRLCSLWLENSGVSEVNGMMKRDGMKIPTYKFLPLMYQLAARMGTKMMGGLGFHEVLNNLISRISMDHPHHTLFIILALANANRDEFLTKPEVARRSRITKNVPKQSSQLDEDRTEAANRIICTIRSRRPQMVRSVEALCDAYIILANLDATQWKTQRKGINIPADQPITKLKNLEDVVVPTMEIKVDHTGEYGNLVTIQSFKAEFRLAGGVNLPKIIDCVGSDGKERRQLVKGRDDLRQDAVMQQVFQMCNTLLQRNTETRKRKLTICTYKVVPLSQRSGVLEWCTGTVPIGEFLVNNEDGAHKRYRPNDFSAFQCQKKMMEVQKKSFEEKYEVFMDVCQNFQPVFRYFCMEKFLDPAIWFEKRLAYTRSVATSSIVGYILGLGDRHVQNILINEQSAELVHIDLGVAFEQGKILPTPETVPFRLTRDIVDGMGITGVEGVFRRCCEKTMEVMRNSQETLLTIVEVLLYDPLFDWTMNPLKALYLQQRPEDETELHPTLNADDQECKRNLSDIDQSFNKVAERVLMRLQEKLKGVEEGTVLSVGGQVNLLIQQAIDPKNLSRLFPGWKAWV
Protocol: (§1) The compounds of the present disclosure used for experiments are all prepared in-house, and their chemical names and structural formulas are shown in the preparation examples of each compound. The experimental tests were carried out by a UK company Eurofins, and the experimental results were provided by the company. The following experimental processes were also provided by the company.
(§2) Human-derived ATM kinase was incubated in a buffer solution containing 30 nM of GST-cMyc-p53 and Mg/ATP. The concentration of Mg/ATP was determined according to different needs. The reaction was initiated by adding a Mg/ATP complex. After incubating for about 30 minutes at room temperature, a stop solution containing EDTA was added to stop the reaction. Finally, for phosphorylated p53, a detection buffer containing a d2-labeled anti-GST monoclonal antibody and an europium-labeled phosphorylated Ser15 antibody was added. Then time-resolved fluorescence mode was used to read a detection disk, and a homogeneous time-resolved fluorescence (HTRF) signal was obtained by calculating formula HTRF=10000×(Em665 nm/Em620 nm).

[2] = target: T2, Human-derived DNA-PK kinase (Homo sapiens, UniProt P78527); assay: DNA-PK enzyme activity test (HTRF, phosphorylation of GST-cMyc-p53); type: biochemical
T2 construct: Eurofins (contract laboratory that ran the test)
Protocol: as §1
as §2, with “Human-derived DNA-PK” for “Human-derived ATM”, “containing 50” for “containing 30”

Structure (SMILES) | Tumor volume (mm^3) ([1]; Day 0 after administration) | Tumor volume (mm^3) ([1]; Day 3 after administration) | Tumor volume (mm^3) ([1]; Day 7 after administration) | Tumor volume (mm^3) ([1]; Day 10 after administration) | Tumor volume (mm^3) ([1]; Day 14 after administration) | Tumor volume (mm^3) ([1]; Day 17 after administration) | Tumor volume (mm^3) ([1]; Day 21 after administration) | T/C (%) tumor proliferation rate [1] [%] | TGI (%) tumor growth inhibition rate [1] [%] | Tumor volume (mm^3) (Day 26) [1] | IC50 (Human-derived ATM kinase) [nM] | IC50 [2] [nM]
COc1cc([C@@H]2c3cc4c(cc3[C@@H](O[C@@H]3O[C@@H]5CO[C@@H](C)O[C@H]5[C@H](O)[C@H]3O)[C@H]3COC(=O)[C@H]23)OCO4)cc(OC)c1O [Etoposide, etoposide, reference compound] | 125 ± 8 | 132 ± 11 | 259 ± 37 | 364 ± 47 | 552 ± 66 | 851 ± 84 | 1021 ± 112 | 59.93 | 41.95 | 1667 ± 193 | – | –
CN1C(=O)C2(CCOCC2)c2c1cnc1cc(F)c(-c3ccc(OCCCN4CCCCC4)nc3)cc21 [Example 32] | 125 ± 7 | 138 ± 6 | 229 ± 10 | 359 ± 36 | 644 ± 83 | 974 ± 129 | 1240 ± 157 | 73.86 | 27.36 | 2054 ± 221 | 2 | 561
